Where two headings read alike, the source gives them in different places.
How the values were obtained:
Type in all cases: cell-based
GRK2 = target: T1, GRK2 (Homo sapiens, UniProt P25098); test: GRK2 Degradation Assay and Western Blot in PAXF1657 cells; parameters: endogenous in cells; host or cells: PAXF1657
T1 sequence (P25098 1-689): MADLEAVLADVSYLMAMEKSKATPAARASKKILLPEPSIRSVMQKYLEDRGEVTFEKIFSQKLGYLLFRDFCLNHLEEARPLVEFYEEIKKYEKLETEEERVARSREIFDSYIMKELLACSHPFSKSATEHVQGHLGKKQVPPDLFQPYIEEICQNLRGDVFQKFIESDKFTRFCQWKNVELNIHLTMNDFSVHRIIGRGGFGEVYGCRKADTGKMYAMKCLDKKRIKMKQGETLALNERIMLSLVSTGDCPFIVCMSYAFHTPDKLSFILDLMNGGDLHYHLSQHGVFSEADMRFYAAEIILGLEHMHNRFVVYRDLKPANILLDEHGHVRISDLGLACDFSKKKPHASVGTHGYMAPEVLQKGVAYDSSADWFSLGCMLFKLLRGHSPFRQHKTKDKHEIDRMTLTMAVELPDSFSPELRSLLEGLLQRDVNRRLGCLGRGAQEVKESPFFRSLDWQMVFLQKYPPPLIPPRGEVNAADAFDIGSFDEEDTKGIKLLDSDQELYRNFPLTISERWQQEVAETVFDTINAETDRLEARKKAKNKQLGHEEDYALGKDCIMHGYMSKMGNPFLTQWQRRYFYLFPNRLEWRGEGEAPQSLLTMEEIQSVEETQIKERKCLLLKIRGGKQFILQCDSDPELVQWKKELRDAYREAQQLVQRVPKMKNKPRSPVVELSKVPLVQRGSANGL
Method: General Protocol: Degradation Assay and Western Blot. PAXF1657 cells were plated in 6-well, 24-well plates or 60 mm tissue culture treated dishes and incubated at 37° C. until 70% confluency. The media was aspirated, and the cells were treated with fresh media containing the compounds in the concentration range of 0 μM to 10 μM for a period of 6 to 24 hours. At the desired time points the cells were washed twice with cold PBS and lysed with lysis buffer (ice cold PBS+1% NP40 with 1/100 protease/phosphatase inhibitors) on ice for 8 mins followed by sonication at 70% intensity pulses for 10 seconds. The cells were centrifuged at 20000 g for 8 min at 4° C. The supernatants were collected and stored at −80° C.
Samples were mixed with NuPAGE LDS sample buffer and NuPAGE sample reducing buffer (3×), vortexed and heated at 95° C. for 10 min, and then analyzed by SDS-PAGE (NuPAGE 4-12%) followed by transfer to nitrocellulose membrane. […] The membranes were washed three times with TBST and incubated with GRK2 or R-actin antibodies in 5% milk in TBST at 4° C. overnight. The membranes were washed three times with TBST and incubated with anti-mouse IgG-HRP or anti-rabbit IgG-HRP at room temperature for 2 hours in 5% milk in TBST. The membranes were washed three times with TBST and developed with ECL Dura, ECL femto or ECL atto substrates.

PAXF1657 EV = test: 7-day cellular proliferation assay (CellTiter-Glo), PAXF1657 EV
Method: (§1) In order to identify compounds specific for GRK2, we generated two isogenic cell line pairs of the pancreatic cancer cell line PAXF1657, a pair of cells stably overexpressing GRK2 cDNA or the control empty vector and a cell line pair of PAXF1657 GRK2 knockout clonal cells versus non-targeting control clonal cells.
(§2) Proliferation Assay: Cellular anti-proliferative activity of compounds was assessed by using the pancreatic cancer cell line, PAXF1657, stably overexpressing GRK2 cDNA or the control empty vector, as well as the parental urinary bladder cancer cell line, 5637. In addition, we also took advantage of GRK2 knockout cell lines that were generated via CRISPR. Cell lines were seeded into tissue culture treated, white-walled, 96-well plates at a density of 500 cells/well in RPMI1640 media supplemented with 10% H.I. FBS and penicillin/streptomycin. Plates were incubated overnight at 37° C., 5% CO2 to allow cells to adhere to the wells. GRK2 inhibitors were added to the cells using a 10-point dilution series with a final concentration ranging from 30 μM-0.0002 μM in 0.3% DMSO. At the time of compound addition, a set of plates, that were not treated with compounds, were collected and cell viability was measured using CellTiter-Glo (Promega). CellTiter-Glo reagent was added to the designed plates and luminescence was measuring using a Biotek Synergy plate reader. The compound treated cells were incubated for 3 days at 37° C., 5% CO2. The media was then aspirated from each well and replaced with fresh media containing GRK2 inhibitors. The compound treated cells were then incubated for an additional 4 days at 37° C., 5% CO2. Cell viability was assessed and at end of the 7-day compound treatment by CellTiterGlo.

PAXF1657 KO Clone #4 = test: 7-day cellular proliferation assay (CellTiter-Glo), PAXF1657 KO Clone #4
Method: as §1, §2

[1] = Conc 0.3 uM, read-out: Degradation Assay - 3 point: Degradation (%)
[2] = Conc 1 uM, read-out: Degradation Assay - 3 point: Degradation (%)
[3] = Conc 3 uM, read-out: Degradation Assay - 3 point: Degradation (%)
[4] = proliferation, read-out: GeoMean IC50 (UM) PAXF1657 EV
[5] = proliferation, read-out: GeoMean IC50 (uM) PAXF1657 KO Clone #4
[6] = 168 h, 7-day, read-out: 7-day proliferation assay: IC50 GeoMean (uM) [Cell Line: PAXF1657 EV]
[7] = 168 h, 7-day, read-out: 7-day proliferation assay: IC50 GeoMean (uM) [Cell Line: PAXF1657 KO Clone #4]
[8] = 1 uM, PAXF1657 EV, 24 hrs, read-out: % GRK2 degradation at 1 uM in PAXF1657 EV (24 hrs)
[9] = 3 uM, PAXF1657 EV, 24 hrs, read-out: % GRK2 degradation at 3 uM in PAXF1657 EV (24 hrs)
[10] = 0.3 uM, PAXF1657 EV, 24 hrs, read-out: % GRK2 degradation at 0.3 uM in PAXF1657 EV (24 hrs)

| SMILES | inhibition at 0.3 µM (GRK2; [1]) | inhibition at 1 µM (GRK2; [2]) | inhibition at 3 µM (GRK2; [3]) | IC50 (PAXF1657 EV; [4]) | IC50 (PAXF1657 KO Clone #4; [5]) | IC50 (PAXF1657 EV; [6]) | IC50 (PAXF1657 KO Clone #4; [7]) | inhibition at 1 µM (GRK2; [8]) | inhibition at 3 µM (GRK2; [9]) | inhibition at 0.3 µM (GRK2; [10]) |
| --- | --- | --- | --- | --- | --- | --- | --- | --- | --- | --- |
| C[C@H](NC(=O)c1cccc(NCc2nnc(-c3ccncn3)n2C)c1)c1cccc(OCCCCCCOCCOCC(=O)Nc2cccc3c2CN(C2CCC(=O)NC2=O)C3=O)c1 (stereo partly drawn) [Compound D193, N-((1S)-1-(3-((6-(2-(2-((2-(2,6-dioxopiperidin-3-yl)-1-oxoisoindolin-4-yl)amino)-2-oxoethoxy)ethoxy)hexyl)oxy)phenyl)ethyl)-3-(((4-methyl-5-(pyrimidin-4-yl)-4H-1,2,4-triazol-3-yl)methyl)amino)benzamide] | 19.3% | 16.7% | 29.6% |  |  |  |  |  |  |  |
| Cn1c(CNc2cccc(C(=O)N[C@H]3CCOc4ccc(OCCCCCCOCCOCCOCCCCCC(=O)Nc5cccc6c5CN(C5CCC(=O)NC5=O)C6=O)cc43)c2)nnc1-c1ccncn1 (stereo partly drawn) [Compound D156, N-((4S)-6-(6-(2-(2-(6-(2-(2,6-dioxopiperidin-3-yl)-1-oxoisoindolin-4-ylamino)-6-oxohexyloxy)ethoxy)ethoxy)hexyloxy)chroman-4-yl)-3-((4-methyl-5-(pyrimidin-4-yl)-4H-1,2,4-triazol-3-yl)methylamino)benzamide] | -8.15% | 2.96% | 11.5% | 2.15 µM | > 30 µM |  |  |  |  |  |
| Cc1ncsc1-c1ccc(CNC(=O)[C@@H]2C[C@@H](O)CN2C(=O)C(NC(=O)CCCCCOCCOCCOCCCCCCOc2ccc3c(c2)[C@H](NC(=O)c2cccc(NCc4nnc(-c5ccncn5)n4C)c2)CCO3)C(C)(C)C)cc1 (stereo partly drawn) [Compound D186, (2S,4R)-1-((R)-2-tert-butyl-22-((R)-4-(3-((4-methyl-5-(pyrimidin-4-yl)-4H-1,2,4-triazol-3-yl)methylamino)benzamido)chroman-6-yloxy)-4-oxo-10,13,16-trioxa-3-azadocosane)-4-hydroxy-N-(4-(4-methylthiazol-5-yl)benzyl)pyrrolidine-2-carboxamide] | 20% | 36.3% | -32.6% | 0.56 µM | 5.09 µM |  |  |  |  |  |
| Cn1c(CNc2cccc(C(=O)NCc3cccc(OCCOCCOCCOCCC(=O)Nc4cccc5c4CN(C4CCC(=O)NC4=O)C5=O)c3)c2)nnc1-c1ccncn1 (stereo not drawn) [Compound D107] |  |  |  |  |  | > 10 µM | > 10 µM | 19% | 20% |  |
| Cn1c(CNc2cccc(C(=O)NCc3cccc(OCCCCCCCn4cc(CCCC(=O)Nc5cccc6c5CN(C5CCC(=O)NC5=O)C6=O)nn4)c3)c2)nnc1-c1ccncn1 (stereo not drawn) [Compound D61] |  |  |  |  |  | > 10 µM | > 10 µM | 55% | 52% | 28% |
| Cn1c(CNc2cccc(C(=O)NCc3cccc(OCCCCCC(=O)NCCOCCOCCOCCC(=O)Nc4cccc5c4CN(C4CCC(=O)NC4=O)C5=O)c3)c2)nnc1-c1ccncn1 (stereo not drawn) [Compound D113] |  |  |  |  |  | > 10 µM | > 10 µM | -6% | 0% |  |
| Cc1ncsc1-c1ccc(CNC(=O)[C@@H]2C[C@@H](O)CN2C(=O)[C@@H](NC(=O)COCCCOCCCCCOc2cccc([C@H](C)NC(=O)c3cccc(NCc4nnc(-c5ccncn5)n4C)c3)c2)C(C)(C)C)cc1 [Compound D184, (2S,4R)-1-((S)-3,3-dimethyl-2-(2-(3-((5-(3-((S)-1-(3-(((4-methyl-5-(pyrimidin-4-yl)-4H-1,2,4-triazol-3-yl)methyl)amino)benzamido)ethyl)phenoxy)pentyl)oxy)propoxy)acetamido)butanoyl)-4-hydroxy-N-(4-(4-methylthiazol-5-yl)benzyl)pyrrolidine-2-carboxamide] | 1.96% | 17.7% | 20.6% |  |  |  |  |  |  |  |
| Cn1c(CNc2cccc(C(=O)N[C@H]3CCOc4ccc(OCCCCCOCCCOCC(=O)Nc5cccc6c5CN(C5CCC(=O)NC5=O)C6=O)cc43)c2)nnc1-c1ccncn1 (stereo partly drawn) [Compound D155, N-((4S)-6-(5-(3-(2-(2-(2,6-dioxopiperidin-3-yl)-1-oxoisoindolin-4-ylamino)-2-oxoethoxy)propoxy)pentyloxy)chroman-4-yl)-3-((4-methyl-5-(pyrimidin-4-yl)-4H-1,2,4-triazol-3-yl)methylamino)benzamide] | 61.9% | 58.1% | -21.9% | > 30 µM | > 30 µM |  |  |  |  |  |
| Cc1ncsc1-c1ccc(CNC(=O)[C@@H]2C[C@@H](O)CN2C(=O)[C@@H](NC(=O)CCCc2cn(CCCCCOc3cccc(CNC(=O)c4cccc(NCc5nnc(-c6ccncn6)n5C)c4)c3)nn2)C(C)(C)C)cc1 [Compound D81] |  |  |  |  |  | > 10 µM | > 10 µM | 1% | 5% | -3% |
| Cn1c(CNc2cccc(C(=O)N[C@@H]3CCOc4ccc(OCCCCCOCCCOCC(=O)Nc5cccc6c5CN(C5CCC(=O)NC5=O)C6=O)cc43)c2)nnc1-c1ccncn1 (stereo partly drawn) [Compound D192, N-((4R)-6-(5-(3-(2-(2-(2,6-dioxopiperidin-3-yl)-1-oxoisoindolin-4-ylamino)-2-oxoethoxy)propoxy)pentyloxy)chroman-4-yl)-3-((4-methyl-5-(pyrimidin-4-yl)-4H-1,2,4-triazol-3-yl)methylamino)benzamide] | 13.5% | 37.4% | 56.2% |  |  |  |  |  |  |  |
| C[C@@H](NC(=O)c1cccc(NCc2nnc(-c3ccncn3)n2C)c1)c1cccc(OCCCCCOCCCOCC(=O)Nc2cccc3c2CN(C2CCC(=O)N(C)C2=O)C3=O)c1 (stereo partly drawn) [Compound D194, N-((1R)-1-(3-((5-(3-(2-((2-(1-methyl-2,6-dioxopiperidin-3-yl)-1-oxoisoindolin-4-yl)amino)-2-oxoethoxy)propoxy)pentyl)oxy)phenyl)ethyl)-3-(((4-methyl-5-(pyrimidin-4-yl)-4H-1,2,4-triazol-3-yl)methyl)amino)benzamide] | 25% | 15% | 0% |  |  |  |  |  |  |  |

— patent US20240174637A1, “DEGRADERS OF GRK2 AND USES THEREOF” (Sonata Therapeutics, Inc., priority 2021, published 2024)
